Where “and” joins values, the source holds several entries; their conditions need not be identical. Equal values may be shown once.
What was measured:
all DHS^WT isoforms = experiment: DHS enzyme assay, summary over all DHS^WT isoforms; format: biochemical, Arabidopsis thaliana; conditions: for inhibition of all DHS^WT isoforms: FIG. 2D
Description: (§1) To generate recombinant DHS proteins the pET28a vectors carrying the A. thaliana DHS1 (AtDHS1), AtDHS2, or AtDHS3 WT sequence without the predicted plastid transit peptide (amino acid residues; 49-525, 34-507, and 52-527, respectively) were expressed in E. coli Rosetta-2 cells and purified using Ni-affinity chromatography, exactly as was conducted previously (9). To generate DHS proteins with individual sota mutations via site-directed mutagenesis, these pET28a plasmid templates were diluted by 500-fold, mixed with 0.04 U/μL Phusion DNA polymerase (Thermo Scientific), 0.2 mM deoxynucleoside triphosphates (dNTPs), 1× Phusion reaction buffer (Thermo Scientific), and 0.5 μM forward and reverse mutagenesis primers (Table 10). The PCR reaction was run using the following protocol: 98° C. for 30 s followed by 20 cycles of 10 s at 98° C., 20 s at 70° C., 4.5 min at 72° C. with a final extension at 72° C. for 10 min. The PCR products were purified using a QIAquick Gel Extraction Kit (QIAGEN), treated with FastDigest DpnI (Thermo Scientific) to digest methylated plasmid template DNA for 20 min at 37° C., and transformed into E. coli cells. The mutagenized pET28a plasmids were sequenced to confirm that no errors were introduced during the mutagenesis process.
The DHS enzyme assays were conducted using the colorimetric method that we recently described (9). Briefly, the enzyme solution (7.7 μl) containing 50 mM Hepes (pH 7.4) was preincubated with an effector molecule(s) at room temperature for 15 min. For assays using recombinant protein and enzyme fractions isolated from plant leaves, 0.01 to 0.1 μg and approximately 50 μg of proteins were used, respectively. After adding 0.5 μl of 0.1 M dithiothreitol, the samples were further incubated at room temperature for 15 min. […] The absorbance of the pink supernatant was read at 549 nm with the microplate reader (Infinite 200 PRO, TECAN) to calculate DAHP production with the molar extinction coefficient at 549 nm (ε=549 nm) of 4.5×10^4 M^−1 cm^−1. […]

DHS1^WT = target: T1, DHS1^WT (Arabidopsis thaliana, UniProt P29976); experiment: DHS enzyme assay (colorimetric), recombinant DHS1^WT; format: biochemical; conditions: recombinant enzyme; read-out: IC50 of effector molecule on DHS1^WT
T1 construct: without the predicted plastid transit peptide (amino acid residues; 49-525, 34-507, and 52-527, respectively); made in house; host or cells: E. coli Rosetta-2
T1 sequence (P29976 49-525): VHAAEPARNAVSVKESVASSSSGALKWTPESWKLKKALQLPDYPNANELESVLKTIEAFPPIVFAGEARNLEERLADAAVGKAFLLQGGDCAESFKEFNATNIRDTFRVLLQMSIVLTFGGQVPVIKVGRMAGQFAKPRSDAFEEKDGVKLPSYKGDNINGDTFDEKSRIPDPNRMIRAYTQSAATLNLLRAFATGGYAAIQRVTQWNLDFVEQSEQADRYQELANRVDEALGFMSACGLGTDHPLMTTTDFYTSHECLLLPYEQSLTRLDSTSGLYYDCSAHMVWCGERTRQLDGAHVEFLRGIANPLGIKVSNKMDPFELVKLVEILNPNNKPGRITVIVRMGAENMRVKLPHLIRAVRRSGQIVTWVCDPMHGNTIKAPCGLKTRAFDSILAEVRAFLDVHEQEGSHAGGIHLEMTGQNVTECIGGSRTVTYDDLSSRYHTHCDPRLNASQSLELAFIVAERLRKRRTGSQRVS
Description: as §1
The DHS enzyme assays were conducted using the colorimetric method that we recently described (9). Briefly, the enzyme solution (7.7 μl) containing 50 mM Hepes (pH 7.4) was preincubated with an effector molecule(s) at room temperature for 15 min. For assays using recombinant protein and enzyme fractions isolated from plant leaves, 0.01 to 0.1 μg and approximately 50 μg of proteins were used, respectively. After adding 0.5 μl of 0.1 M dithiothreitol, the samples were further incubated at room temperature for 15 min. During these incubations, the substrate solution containing 50 mM Hepes (pH 7.4), 2 mM MnCl2, 4 mM E4P, and 4 mM PEP at final concentration was preheated at 37° C. The enzyme reaction was started by adding 6.8 μl of the substrate solution, then incubated at 37° C. for 30 min, and terminated by adding 30 μl of 0.6 M trichloroacetic acid. After a brief centrifugation, 5 μl of 200 mM NaIO4 (sodium meta-periodate) in 9 N H3PO4 was added to oxidize the enzymatic product and to incubate at 25° C. for 20 min. To stop the oxidation reaction, 20 μl of 0.75 M NaAsO2 (sodium arsenite), which was dissolved in 0.5 M Na2SO4 and 0.05 M H2SO4, was added and immediately mixed. After 5 min of incubation at room temperature, one-third of the sample solution was transferred to a new tube to be mixed with 50 μl of 40 mM thiobarbituric acid and incubated at 99° C. for 15 min in a thermal cycler. The mixture was added to 600 μl of cyclohexanone in eight-strip solvent-resistant plastic tubes, mixed vigorously, and centrifuged at 4500 g for 3 min to separate water- and cyclohexanone-based layers for the extraction off the developed pink chromophore. The absorbance of the pink supernatant was read at 549 nm with the microplate reader (Infinite 200 PRO, TECAN) to calculate DAHP production with the molar extinction coefficient at 549 nm (ε=549 nm) of 4.5×10^4 M^−1 cm^−1. Reaction mixtures with boiled enzymes were run in parallel and used as negative controls to estimate the background signal.

DHS3^G1 = experiment: DHS enzyme assay, recombinant DHS3^G1; format: biochemical, Arabidopsis thaliana
Description: as §1, with “To” for “To generate recombinant DHS proteins the pET28a vectors carrying the A. thaliana DHS1 (AtDHS1), AtDHS2, or AtDHS3 WT sequence without the predicted plastid transit peptide (amino acid residues; 49-525, 34-507, and 52-527, respectively) were expressed in E. coli Rosetta-2 cells and purified using Ni-affinity chromatography, exactly as was conducted previously (9). To”
The DHS enzyme assays were conducted using the colorimetric method that we recently described (9). Briefly, the enzyme solution (7.7 μl) containing 50 mM Hepes (pH 7.4) was preincubated with an effector molecule(s) at room temperature for 15 min. For assays using recombinant protein and enzyme fractions isolated from plant leaves, 0.01 to 0.1 μg and approximately 50 μg of proteins were used, respectively. After adding 0.5 μl of 0.1 M dithiothreitol, the samples were further incubated at room temperature for 15 min. During these incubations, the substrate solution containing 50 mM Hepes (pH 7.4), 2 mM MnCl2, 4 mM E4P, and 4 mM PEP at final concentration was preheated at 37° C. The enzyme reaction was started by adding 6.8 μl of the substrate solution, then incubated at 37° C. for 30 min, and terminated by adding 30 μl of 0.6 M trichloroacetic acid. After a brief centrifugation, 5 μl of 200 mM NaIO4 (sodium meta-periodate) in 9 N H3PO4 was added to oxidize the enzymatic product and to incubate at 25° C. for 20 min. To stop the oxidation reaction, 20 μl of 0.75 M NaAsO2 (sodium arsenite), which was dissolved in 0.5 M Na2SO4 and 0.05 M H2SO4, was added and immediately mixed. […]

DHS3^WT = experiment: DHS enzyme assay, recombinant DHS3^WT; format: biochemical, Arabidopsis thaliana; conditions: read-out: IC50 of effector molecule on DHS3^WT
Description: as §1, with “To” for “To generate recombinant DHS proteins the pET28a vectors carrying the A. thaliana DHS1 (AtDHS1), AtDHS2, or AtDHS3 WT sequence without the predicted plastid transit peptide (amino acid residues; 49-525, 34-507, and 52-527, respectively) were expressed in E. coli Rosetta-2 cells and purified using Ni-affinity chromatography, exactly as was conducted previously (9). To”
(§2) The DHS enzyme assays were conducted using the colorimetric method that we recently described (9). Briefly, the enzyme solution (7.7 μl) containing 50 mM Hepes (pH 7.4) was preincubated with an effector molecule(s) at room temperature for 15 min. For assays using recombinant protein and enzyme fractions isolated from plant leaves, 0.01 to 0.1 μg and approximately 50 μg of proteins were used, respectively. […]

[1] = target: T2, Arabidopsis thaliana DHS2 (AtDHS2), wild type (DHS2^WT), SEQ ID NO:2 (Arabidopsis thaliana, UniProt Q00218); experiment: DHS enzyme assay with effector, Arabidopsis DHS2 WT; format: biochemical; conditions: 4 mM E4P, 4 mM PEP, pH 7.4, 37° C.
T2 construct: without the predicted plastid transit peptide (amino acid residues; 49-525, 34-507, and 52-527, respectively); made in house; host or cells: E. coli Rosetta-2
T2 sequence (Q00218 34-507): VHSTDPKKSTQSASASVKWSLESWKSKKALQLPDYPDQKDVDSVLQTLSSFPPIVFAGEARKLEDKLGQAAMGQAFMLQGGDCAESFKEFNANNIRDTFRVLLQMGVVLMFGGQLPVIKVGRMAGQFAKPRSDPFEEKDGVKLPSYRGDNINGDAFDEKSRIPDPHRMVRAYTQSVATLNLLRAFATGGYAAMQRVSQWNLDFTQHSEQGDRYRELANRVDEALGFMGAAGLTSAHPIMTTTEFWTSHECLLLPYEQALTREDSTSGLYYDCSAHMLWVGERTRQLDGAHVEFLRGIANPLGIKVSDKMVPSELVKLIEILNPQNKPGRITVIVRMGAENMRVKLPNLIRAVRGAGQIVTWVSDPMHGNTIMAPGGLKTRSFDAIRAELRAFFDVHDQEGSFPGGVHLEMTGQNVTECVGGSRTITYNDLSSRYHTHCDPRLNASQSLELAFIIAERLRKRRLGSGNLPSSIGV
Description: as §1, with “To” for “To generate recombinant DHS proteins the pET28a vectors carrying the A. thaliana DHS1 (AtDHS1), AtDHS2, or AtDHS3 WT sequence without the predicted plastid transit peptide (amino acid residues; 49-525, 34-507, and 52-527, respectively) were expressed in E. coli Rosetta-2 cells and purified using Ni-affinity chromatography, exactly as was conducted previously (9). To”
as §2

| SMILES | inhibition of all DHS^WT isoforms (all DHS^WT isoforms) | IC50 (all DHS^WT isoforms; range over the three isoforms) [µM] | IC50 (DHS1^WT) [µM] | IC50 (DHS3^G1; read-out: IC50 of effector molecule on DHS3^G1) [µM] | IC50 (DHS3^WT) [µM] | IC50 [1] | IC50 of effector molecule on DHS3^G1 (DHS3^G1) |
| --- | --- | --- | --- | --- | --- | --- | --- |
| O=C(O)Cc1cc(O)ccc1O [HGA, homogentisate] | effectively inhibited | 75 to 250 | 253 | 375 | 102 | – | – |
| O=C(O)C(=O)Cc1ccc(O)cc1 [HPP, 4-Hydroxyphenylpyruvate] | effectively inhibited | – | – | – | 516 | 48.4 µM | – |
| O=C(O)C(=O)Cc1c[nH]c2ccccc12 [IPA, indole-3-pyruvate] | – | – | 241 | – | – | 58 µM and 58.3 µM | – |
| N[C@@H](Cc1c[nH]c2ccccc12)C(=O)O [Trp, tryptophan] | – | – | – | – | – | – | Not inhibited |

Source: patent publication US20250043299A1, “POINT MUTATIONS THAT BOOST AROMATIC AMINO ACID PRODUCTION AND CO2 ASSIMILATION IN PLANTS” (Wisconsin Alumni Research Foundation, priority 2021, published 2025)
